Source: ChEMBL document CHEMBL5034011, “Discovery and Optimization of a 4-Aminopiperidine Scaffold for Inhibition of Hepatitis C Virus Assembly” (J Med Chem, 2021)
Converted amounts (≈) assume the structure as drawn.

How the values were obtained:
[1] = Permeability of the compound by PAMPA method; format: ADME; conditions: for Papp: read-out: permeability
[2] = Kinetic aqueous solubility of compound by pION uSOL method at pH 7.4; conditions: buffer
[3] = AUClast in CD-1 mouse liver at 1 mg/kg; format: ADME, organism-based; set-up: time 0 - last, dose 1 mg/kg
[4] = Cmax in CD-1 mouse liver at 1 mg/kg; format: ADME, organism-based; set-up: dose 1 mg/kg
[5] = Tmax in CD-1 mouse plasma at 1 mg/kg; format: ADME, organism-based
[6] = Tmax in CD-1 mouse liver at 1 mg/kg; format: ADME, organism-based
[7] = Ratio of AUClast in liver to plasma in CD-1 mouse at 1 mg/kg; format: ADME, organism-based
[8] = Ratio of AUClast in brain to plasma in CD-1 mouse at 1 mg/kg; format: ADME, organism-based
[9] = AUClast in CD-1 mouse plasma at 1 mg/kg; format: ADME, organism-based; set-up: time 0 - last, dose 1 mg/kg
[10] = AUClast in CD-1 mouse brain at 1 mg/kg; format: ADME, organism-based; set-up: time 0 - last, dose 1 mg/kg
[11] = Tmax in CD-1 mouse brain at 1 mg/kg; format: ADME, organism-based
[12] = Cmax in CD-1 mouse brain at 1 mg/kg; format: ADME, organism-based; set-up: dose 1 mg/kg
[13] = Ratio of AUClast in brain to plasma in CD-1 mouse at 10 mg/kg; format: ADME, organism-based
[14] = AUClast in CD-1 mouse brain at 10 mg/kg; format: ADME, organism-based; set-up: time 0 - last, dose 10 mg/kg
[15] = AUClast in CD-1 mouse liver at 10 mg/kg; format: ADME, organism-based; set-up: time 0 - last, dose 10 mg/kg
[16] = Tmax in CD-1 mouse brain at 10 mg/kg; format: ADME, organism-based
[17] = Ratio of AUClast in liver to plasma in CD-1 mouse at 10 mg/kg; format: ADME, organism-based
[18] = AUClast in CD-1 mouse plasma at 10 mg/kg; format: ADME, organism-based; set-up: time 0 - last, dose 10 mg/kg
[19] = Tmax in CD-1 mouse liver at 10 mg/kg; format: ADME, organism-based
[20] = Tmax in CD-1 mouse plasma at 10 mg/kg; format: ADME, organism-based
[21] = Cmax in CD-1 mouse plasma at 10 mg/kg; format: ADME, organism-based; set-up: dose 10 mg/kg
[22] = Cmax in CD-1 mouse liver at 10 mg/kg; format: ADME, organism-based; set-up: dose 10 mg/kg

| SMILES | Papp [1] [×10⁻⁶ cm/s] | solubility kinetic [2] [µg/mL] | further results |
| --- | --- | --- | --- |
| Cc1cccc(C2CC(N(Cc3ccc(Br)c(Cl)c3)C3CCNCC3)C2)c1 (stereo not drawn) | 265 |  |  |
| Cc1ccc(C2CC(N(Cc3ccc(Br)c(Cl)c3)C3CCN(C)CC3)C2)cc1 (stereo not drawn) | 274 | 22.9 (≈ 49.7 µM) |  |
| Fc1ccc(C2CC(N(Cc3ccc(Br)c(Cl)c3)C3CCNCC3)C2)cc1 (stereo not drawn) | 398 |  |  |
| Cc1ccc([C@H]2C[C@H](N(Cc3ccc(Br)c(Cl)c3)C3CCNCC3)C2)cc1 |  | 1.09 (≈ 2.43 µM) | AUC(0-t) [3]: 9570 ng·h/mL; Cmax [4]: 1850 ng/mL; Tmax [5]: 0.167 h; Tmax [6]: 2 h; Kp [7]: 35; Kp [8]: 11; AUC(0-t) [9]: 275 ng·h/mL; AUC(0-t) [10]: 3000 ng·h/mL; Tmax [11]: 1.5 h; Cmax [12]: 153 ng/mL |
| Cc1ccc(C2CC(N(Cc3ccc(Br)c(Cl)c3)C3CCNCC3)C2)cc1 (stereo not drawn) | 806 | 18.2 (≈ 40.6 µM) |  |
| Clc1cc(CN(C2CCNCC2)C2CC(c3ccc(Br)cc3)C2)ccc1Br (stereo not drawn) | 32 | 3.32 (≈ 6.48 µM) | Kp [13]: 54; AUC(0-t) [14]: 56800 ng·h/mL; AUC(0-t) [15]: 793000 ng·h/mL; Tmax [16]: 24 h; Kp [17]: 76; AUC(0-t) [18]: 10500 ng·h/mL; Tmax [19]: 1 h; Tmax [20]: 0.5 h; Cmax [21]: 759 ng/mL; Cmax [22]: 57400 ng/mL |
| Cc1ccc(C2CC(N(Cc3ccc(Br)c(Cl)c3)C3CC4CNC3C4)C2)cc1 (stereo not drawn) | 123 | 7.26 (≈ 15.8 µM) |  |
| Cc1ccc(C2CC(N(Cc3ccc(Br)c(Cl)c3)C3CCN(C(C)C)CC3)C2)cc1 (stereo not drawn) | < 23.1 | 15.4 (≈ 31.4 µM) |  |
| Clc1cccc(C2CC(N(Cc3ccc(Br)c(Cl)c3)C3CCNCC3)C2)c1 (stereo not drawn) |  | 4 (≈ 8.54 µM) |  |
| Cc1ccc(C2CC(N(Cc3ccc(Br)c(Cl)c3)C3CCOCC3)C2)cc1 (stereo not drawn) | < 6.4 | < 1 |  |
| Clc1cc(CN(C2CCNCC2)C2CC(c3cccc(Br)c3)C2)ccc1Br (stereo not drawn) | 14 | 3.94 (≈ 7.68 µM) |  |
| Cc1ccc(C2CC(N(Cc3ccc(Br)c(Cl)c3)C3CC4CCC(C3)N4)C2)cc1 (stereo not drawn) |  | 11.1 (≈ 23.4 µM) |  |
| Cc1ccc(C2CC(N(Cc3ccc(Br)c(Cl)c3)C3C4CCC3CNC4)C2)cc1 (stereo not drawn) |  | < 1 |  |
| CC(=O)N1CCC(N(Cc2ccc(Br)c(Cl)c2)C2CC(c3ccc(C)cc3)C2)CC1 (stereo not drawn) |  | < 1 | permeability [1]: 1909 10^-6 cm/s |
| Cc1ccc(C2CC(N(Cc3ccc(Br)c(Cl)c3)C3CCCNCC3)C2)cc1 (stereo not drawn) | 666 | 25.6 (≈ 55.5 µM) |  |
| Cc1ccc(C2CC(N(Cc3ccc(Br)c(Cl)c3)C3CCCNC3)C2)cc1 (stereo not drawn) |  | 13.3 (≈ 29.7 µM) |  |
| Cc1ccc(C2CC(N(Cc3ccc(Br)c(Cl)c3)C3CCC(N)CC3)C2)cc1 (stereo not drawn) | 818 |  |  |
| Cc1ccc([C@H]2C[C@@H](N(Cc3ccc(Br)c(Cl)c3)C3CCNCC3)C2)cc1 |  | 9.71 (≈ 21.7 µM) |  |
| Cc1ccc(C2CC(N(Cc3ccc(Br)c(Cl)c3)C3CCNC3)C2)cc1 (stereo not drawn) |  | 23.2 (≈ 53.5 µM) |  |
